Earlier results on 1 compound are cited in US20070015771A1, “Lonidamine analogs” (Threshold pharmaceuticals, Inc., priority 2004, published 2007).

Read-outs that look alike come from different tables or passages of the source.

For series [1], the system named is primary cultures of human prostate epithelial cells. The conditions noted are these: epithelial vs stromal cells; cited from earlier work.
In series [2] the test system is cell lines derived from human prostate cells. The conditions noted are these: LNCaP vs PC3 cells; cited from earlier work.
The subject of series [3] is advanced breast cancer. As to conditions: 28 evaluable patients, daily divided oral dose of 600 mg; cited from earlier work.
In series [4] the test system is HIF-1-alpha. The conditions noted are these: cells cultured under hypoxia, cited from earlier work.

For the compound `O=C(O)c1nn(Cc2ccc(Cl)cc2Cl)c2ccccc12` [lonidamine, 1-(2,4-dichlorobenzyl)-1H-indazole-3-carboxylic acid], the “apoptosis in primary cultures of human prostate epithelial cells” value in series [1] was “induces apoptosis”. Further, in series [2], the “apoptosis in cell lines derived from human prostate cells” value is reported as “induces apoptosis”. Besides, in series [3], the minor response is 11% and the partial response was 11%. Moreover, in series [4] (200 micromolar), the “reduction of HIF-1-alpha expression/accumulation (nuclear fraction)” value was “about 2 fold”. For the same compound, the “reduction of HIF-1-alpha expression/accumulation (nuclear fraction)” value in series [4] (higher lonidamine concentrations) is recorded as “more than 5 fold”.
